Results published in patent US10420718B2, “Effervescent compositions containing co-crystals of the acid part” (University of Bradford, priority 2014, dated 2019).

What was measured:
[1] = Stability of co-crystals stored at 98% relative humidity, checked by XRD; type: physicochemical; details: 98% RH
Experimental: The co-crystals were stored at 98% relative humidity and the stability was evaluated after 24 hours using powder X-ray diffraction. […] This stability of the co-crystal in the presence of high amounts of atmospheric moisture is responsible for maintenance of the effervescent action. The stability of the co-crystals to moisture was investigated by storing the co-crystals at 98% relative humidity and the following results were observed. The co-crystal samples were analysed with XRD to check whether the co-crystal retained its structure or became dissociated or degraded over time on exposure to the atmosphere. Stability of Co-Crystals at 98% RH

[2] = Dynamic vapour sorption (DVS) study; type: physicochemical; details: for Moisture sorption (weight gain) at 90% relative humidity: DVS, 90% RH
Experimental: UK. The sample weights were taken in the range of 30-50 mg and below experimental parameters were kept constant for all samples.

Row | SMILES | XRD results (co-crystal stability) ([1]; Day 14) | XRD results (co-crystal stability) ([1]; Day 18) | Behaviour in DVS study (in words) ([2]; DVS 0-90% RH, 25 C) | Moisture sorption (weight gain) at 90% relative humidity ([2]; 25 C) [%] | Change In Mass (%) ([2]; Target Relative Humidity 0.0%) | Change In Mass (%) ([2]; Target Relative Humidity 10.0%) | Change In Mass (%) ([2]; Target Relative Humidity 20.0%) | Change In Mass (%) ([2]; Target Relative Humidity 30.0%) | Change In Mass (%) ([2]; Target Relative Humidity 40.0%) | Change In Mass (%) ([2]; Target Relative Humidity 50.0%) | Change In Mass (%) ([2]; Target Relative Humidity 60.0%) | Change In Mass (%) ([2]; Target Relative Humidity 70.0%) | Change In Mass (%) ([2]; Target Relative Humidity 80.0%) | Change In Mass (%) ([2]; Target Relative Humidity 90.0%) | Weight gain due to moisture sorption (total) ([2]; DVS 0-90% RH, 25 C) [%]
1 | NC(=O)c1cccnc1.NC(=O)c1cccnc1.O=C(O)CC(O)(CC(=O)O)C(=O)O [Citric acid-nicotinamide, 1:2, citric acid-nicotinamide 1:2 co-crystal] | Stable | Stable | non-hygroscopic | 0.23 |  |  |  |  |  |  |  |  |  |  | 
2 | NC(=O)c1cccnc1.NC(=O)c1cccnc1.O=C(O)CC(O)(CC(=O)O)C(=O)O [Citric acid:nicotinamide, 1:2 co-crystal] |  |  |  |  | 0.0002 | 0.0044 | 0.0070 | 0.0108 | 0.0145 | 0.0203 | 0.0318 | 0.0561 | 0.0976 | 0.2319 | 
3 | O=C(O)CC(O)(CC(=O)O)C(=O)O [citric acid] |  |  | undergoes liquefaction |  | 0.00 | 0.00 | 0.00 | 0.00 | 0.00 | 0.00 | 0.01 | 0.02 | 4.65 | 31.21 | 31
4 | O=C([O-])O.[Na+] [sodium bicarbonate] |  |  |  | 0.32 | −0.0001 | 0.0027 | 0.0042 | 0.0056 | 0.0074 | 0.0103 | 0.0143 | 0.0240 | 0.0746 | 0.3236 | 
